Our source for the GI50 and TGI values is PubChem BioAssay (NCI).

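All cell lines were grown in 96-well plates and treated with compound for 48 hours. At the GI50, growth is halved. TGI: total growth inhibition.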 *1 amine or outer side, *2 acyl side, *3 side chain or, on linkers, in order; H or OH if unused. Where a SMILES comes first, the peptide text is derived from it. [ ]: non-standard residue; d: D form. The star is where a group is joined. ξ: configuration not given here. X15 = CCN(CC)c1ccc2cc(N*)c(=O)oc2c1; dIva = CC[C@@](C)(N)C(=O)O; X14 = O=C(OCCN[*:1])[*:2]; Aib = CC(C)(N)C(=O)O; ξP = O=C(O)C1CCCN1; βAla = NCCC(=O)O

Some test systems named below: NCI-H226 lung; HCT-116 colon; OVCAR-3 ovarian; ACHN renal; NCI-H460 lung; M14 melanoma; SR leukemia; SF-268 CNS; A498 renal; OVCAR-5 ovarian.
Common to all, as to assay: growth of human tumour cells (NCI), 48 h

Turning to `CCCc1cc(=O)n2c(C(=O)Nc3ccccc3OC)c(C(=O)Nc3ccc(F)cc3)sc2n1`, the GI50 with NCI-H226 lung was 0.802 µM; in the assay with HCT-116 colon, 4.61 µM; with OVCAR-3 ovarian, 9.56 µM; in the assay with ACHN renal it was 5.11 µM; in the assay on NCI-H460 lung, 39.8 µM; in the assay on M14 melanoma it was 23.3 µM. Further, the GI50 in the assay on SR leukemia is 4.57 µM; with SF-268 CNS it was 14.3 µM; in the assay with A498 renal, 34.3 µM; in the assay on OVCAR-5 ovarian, 69.3 µM. Besides, the TGI with NCI-H226 lung was 6.96 µM; in the assay with HCT-116 colon, 22.2 µM; in the assay on OVCAR-3 ovarian it was 34.1 µM; in the assay with ACHN renal it was 18.7 µM; in the assay with NCI-H460 lung, over 160 µM; in the assay with M14 melanoma it was 110 µM. The TGI in the assay on SR leukemia is 25.3 µM; in the assay with SF-268 CNS, 38 µM; in the assay with A498 renal it was 97.1 µM; in the assay on OVCAR-5 ovarian, over 160 µM.
For `COc1ccc2c(c1)C(C)Cc1c(Cl)nc(C)nc1N2C` (stereo not given), the GI50 with NCI-H226 lung is 5.83 µM; in the assay on HCT-116 colon it was 1.84 µM; in the assay with OVCAR-3 ovarian it was 1.4 µM; with ACHN renal, 5.61 µM; in the assay on NCI-H460 lung, 3.09 µM; in the assay on M14 melanoma, 1.34 µM. In addition, the GI50 in the assay with SR leukemia was 2.44 µM; with SF-268 CNS, 2.6 µM; in the assay with A498 renal, 6.79 µM; in the assay with OVCAR-5 ovarian, 5.91 µM. The TGI with NCI-H226 lung is 40.3 µM; with HCT-116 colon, 16.4 µM; in the assay on OVCAR-3 ovarian, 4.17 µM; in the assay with ACHN renal it was over 100 µM; in the assay with NCI-H460 lung, 15.4 µM; in the assay with M14 melanoma it was 12.4 µM. Further, the TGI with SR leukemia is over 100 µM; in the assay on SF-268 CNS, 18.6 µM; in the assay with A498 renal, 25 µM; in the assay with OVCAR-5 ovarian, over 100 µM.
As for `FC(F)(F)c1ccc(-c2cnc(Cl)nc2NCc2cc(C(F)(F)F)cc(C(F)(F)F)c2)cc1`, the GI50 is 2.61 µM in the assay with NCI-H226 lung; 3.32 µM with HCT-116 colon; 2.79 µM in the assay on OVCAR-3 ovarian; 3.28 µM in the assay on ACHN renal; 3.16 µM in the assay on NCI-H460 lung; 4.44 µM with M14 melanoma. Also, the GI50 in the assay on SR leukemia was 3.67 µM; in the assay on SF-268 CNS, 3.86 µM; with A498 renal, 1.97 µM; in the assay on OVCAR-5 ovarian it was 4.52 µM. For the same compound, the TGI with NCI-H226 lung was over 100 µM; with HCT-116 colon, over 100 µM; with OVCAR-3 ovarian, 9.25 µM; with ACHN renal, over 100 µM; in the assay with NCI-H460 lung, over 100 µM; with M14 melanoma, over 100 µM. Moreover, the TGI in the assay on SR leukemia is over 100 µM; with SF-268 CNS it was over 100 µM; in the assay on A498 renal, 6.87 µM; with OVCAR-5 ovarian, over 100 µM.
As for `COC(=O)C1=C(O)c2cc3c(cc2[C@H](c2cc(OC)c(OC)c(OC)c2)C1C(=O)OC)OCO3` (stereo not given in full), the TGI is over 100 µM in the assay with NCI-H226 lung; over 100 µM with HCT-116 colon; 92.4 µM in the assay with OVCAR-3 ovarian; 58.1 µM in the assay with ACHN renal; over 100 µM with NCI-H460 lung; over 100 µM in the assay with M14 melanoma. For the same compound, the TGI in the assay with SR leukemia, in the assay with SF-268 CNS, in the assay with A498 renal and in the assay on OVCAR-5 ovarian was over 100 µM in each case.
Turning to `CSC1(SC2=NCCN2)SC2(NCCN2)S1`, the TGI in the assay on NCI-H226 lung was determined as 56.7 µM; with HCT-116 colon, 31.7 µM; with OVCAR-3 ovarian, 30.6 µM; in the assay with ACHN renal it was 33.2 µM; in the assay with NCI-H460 lung, 45.4 µM; in the assay on M14 melanoma it was 44.3 µM. For the same compound, the TGI in the assay with SR leukemia came to 37.7 µM; in the assay with SF-268 CNS, 40.3 µM; with A498 renal, 27.9 µM; in the assay on OVCAR-5 ovarian, 39.6 µM.
As for `COc1cc(C2CC(c3ccc(N(C)C)cc3)=NN2C(C)=O)cc(OC)c1OC` (stereo not given), the GI50 in the assay on NCI-H226 lung is 6.46 µM; with HCT-116 colon it was 1.22 µM; in the assay with OVCAR-3 ovarian, 0.352 µM; with ACHN renal it was 3.57 µM; in the assay on NCI-H460 lung, 1.41 µM; with M14 melanoma, 1.39 µM. The GI50 is 2.39 µM in the assay on SR leukemia, 3.69 µM with SF-268 CNS, 2.18 µM with A498 renal and over 27.8 µM with OVCAR-5 ovarian. Further, the TGI with NCI-H226 lung was over 100 µM; in the assay on HCT-116 colon, over 45.4 µM; in the assay with OVCAR-3 ovarian it was 1.84 µM; with ACHN renal, over 100 µM; with NCI-H460 lung it was over 100 µM; with M14 melanoma it was over 100 µM. In addition, the TGI with SR leukemia was over 100 µM; with SF-268 CNS, over 100 µM; in the assay with A498 renal it was over 47.4 µM; in the assay on OVCAR-5 ovarian, over 100 µM.
Regarding `CCN(CC)c1ccc2cc(NC(=O)OCCNC(=O)CCNC(=O)[C@H](CC(C)C)NC(=O)C(C)(C)NC(=O)C(C)(C)NC(=O)[C@H](CC(C)C)NC(=O)CCNC(=O)C(C)(C)NC(=O)[C@H](CC(C)C)NC(=O)CCNC(=O)[C@@](C)(CC)NC(=O)[C@H](C)NC(=O)CCNC(=O)C(C)(C)NC(=O)[C@H](C)NC(=O)[C@@H]3CCCN3C(=O)[C@@](C)(CC)NC(=O)[C@H](Cc3ccccc3)NC(=O)C3CCCN3C(=O)C(C)(C)NC(=O)C3CCCN3C(=O)C(C)(C)NC(C)=O)c(=O)oc2c1` (stereo not given in full) (Ac-[Aib][ξP][Aib][ξP]F[dIva]PA[Aib][βAla]A[dIva][βAla]L[Aib][βAla]L[Aib][Aib]L[βAla][X14]-X15), the GI50 is 0.00561 µM with NCI-H226 lung; 0.0035 µM in the assay on HCT-116 colon; 0.00338 µM in the assay with OVCAR-3 ovarian; 0.0406 µM in the assay with ACHN renal; 0.00348 µM in the assay on NCI-H460 lung; 0.00838 µM in the assay on M14 melanoma. Further, the GI50 in the assay with SR leukemia is 0.00423 µM; in the assay on SF-268 CNS, 0.00435 µM; in the assay on A498 renal, 0.00291 µM; in the assay on OVCAR-5 ovarian it was 0.00506 µM. Also, the TGI was 0.0348 µM in the assay with NCI-H226 lung; 0.0455 µM in the assay on HCT-116 colon; 0.0139 µM with OVCAR-3 ovarian; 0.16 µM with ACHN renal; 0.0138 µM in the assay with NCI-H460 lung; 0.0358 µM in the assay with M14 melanoma. Further, the TGI came to 0.0235 µM in the assay with SR leukemia, 0.0187 µM in the assay on SF-268 CNS, 0.0265 µM in the assay on A498 renal and 0.116 µM in the assay on OVCAR-5 ovarian.
